Results reported in patent publication US12577231B2, “Androgen receptor PROTACS” (GlaxoSmithKline Intellectual Property Development Limited, priority 2023, dated 2026).

Each compound was assayed against T1, Androgen Receptor dual T878A/L702H mutant protein (Homo sapiens, UniProt P10275, L702H/T878A) (assay: Dual Mutant (T878A/L702H) Androgen Receptor Degradation Assay (HTRF, MDA-PCa-2b cells)). Settings: 18 h, 18 h incubation, read-out: mean asymptote max.
T1 construct: host or cells: MDA-PCa-2b
T1 sequence (P10275 1-920 L702H/T878A): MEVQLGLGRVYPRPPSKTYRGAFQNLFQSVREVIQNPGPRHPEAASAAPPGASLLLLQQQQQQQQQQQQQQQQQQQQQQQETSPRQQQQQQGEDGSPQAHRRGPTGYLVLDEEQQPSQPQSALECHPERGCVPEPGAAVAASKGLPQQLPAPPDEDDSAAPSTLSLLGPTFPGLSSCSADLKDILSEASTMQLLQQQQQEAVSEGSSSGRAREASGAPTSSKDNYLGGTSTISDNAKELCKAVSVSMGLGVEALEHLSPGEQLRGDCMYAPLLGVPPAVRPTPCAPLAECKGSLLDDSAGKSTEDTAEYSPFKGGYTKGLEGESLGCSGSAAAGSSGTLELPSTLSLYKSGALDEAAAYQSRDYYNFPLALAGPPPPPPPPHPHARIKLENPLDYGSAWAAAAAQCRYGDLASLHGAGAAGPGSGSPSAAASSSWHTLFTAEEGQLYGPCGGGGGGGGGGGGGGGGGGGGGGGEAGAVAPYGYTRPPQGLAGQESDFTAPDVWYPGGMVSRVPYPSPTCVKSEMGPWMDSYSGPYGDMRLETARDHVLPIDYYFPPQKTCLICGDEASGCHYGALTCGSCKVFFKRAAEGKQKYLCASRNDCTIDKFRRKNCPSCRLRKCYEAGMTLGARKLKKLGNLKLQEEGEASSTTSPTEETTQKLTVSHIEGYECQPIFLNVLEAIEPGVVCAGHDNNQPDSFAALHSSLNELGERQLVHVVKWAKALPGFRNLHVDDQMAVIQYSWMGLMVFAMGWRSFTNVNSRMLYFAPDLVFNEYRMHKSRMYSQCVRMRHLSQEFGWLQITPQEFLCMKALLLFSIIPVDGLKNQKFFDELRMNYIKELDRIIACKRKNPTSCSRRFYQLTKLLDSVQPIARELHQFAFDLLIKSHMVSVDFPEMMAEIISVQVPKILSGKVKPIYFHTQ
Format: cell-based
Description: Degradation of Androgen Receptor dual T878A/L702H mutant protein in human MDA-PCa-2b (ATCC) cells treated with PROTACs was quantified using the HTRF Human Androgen Receptor Detection Kit (PerkinElmer) in 384 well assay plate format. 10 mM DMSO (Sigma-Aldrich) stock solutions of PROTACs were prepared and diluted across an 11 concentration, 3-fold increment range, and 25 nL dispensed into a white opaque bottomed 384 well assay plate (Thermofisher) using an acoustic ECHO dispenser (Labcyte). Cells were cultured in growth medium (BRFF—HPC-1 (Athena ES) supplemented with 20% FBS (Gibco), penicillin 50U/mL and streptomycin 50 μg/mL (Gibco, #15140-122)) in collagen I or poly-D-lysine coated T175 flasks (Corning, #356487 or #356539, respectively). For the assay, cells were harvested from the flask, centrifuged at 200 g for 5 min and then resuspended in the growth medium. 25 μl of cell suspension containing 10,000 cells was dispensed into each well of the assay plate containing the test compounds, which was then incubated for 18 h at 37° C./5% CO2. Control wells were included on each assay plate, with assay medium without cells being the no AR remaining 100% effect control, and cells treated with DMSO vehicle only, without PROTAC, the 0% effect control. After 18 h incubation 8 μl of supplemented lysis buffer from HTRF kit was added to each well and the plate shaken at 500 rpm for 1 h at room temperature. 8 μl of antibody mix in Detection buffer from HTRF kit was added to each well and the plate was incubated for 2 h in dark at mom temperature. The fluorescence was measured at both 620 nm and 665 nm using an excitation wavelength of 337 nm with a PHERAstar microplate reader (BMG Labtech) and the % AR protein remaining in each well was calculated by normalising the HTRF ratio (665 nm signal/620 nm signal) value to the control wells mentioned above. Parameters corresponding to the potency and efficacy estimates of the PROTACs were obtained from these normalised values using curve fitting software (IDBS ActivityBase). These included the DC50 and the Dmax estimates. Two versions of the DC50, called relative DC50 and absolute DC50, were typically generated. These are the inflection point of a fitted 4 parameter sigmoidal response curve and the interpolated concentration of PROTAC corresponding to 50% of the protein being degraded, respectively. The Dmax parameter was the maximum experimentally observed degradation and the asymptote max parameter the fitted response curve asymptote maximum.

Dmax, ≥ 50%:
Cc1c(O[C@H]2C(C)(C)[C@H](NC(=O)c3ccc(N4CCC(CN5CCC(n6ncc7c(N8CCC(=O)NC8=O)cccc76)CC5)CC4)c(F)c3)C2(C)C)ccc(C#N)c1Cl [Example 2, N-((1r,3r)-3-(3-Chloro-4-cyano-2-methylphenoxy)-2,2,4,4-tetramethylcyclobutyl)-4-(4-((4-(4-(2,4-dioxotetrahydropyrimidin-1(2H)-yl)-1H-indazol-1-yl)piperidin-1-yl)methyl)piperidin-1-yl)-3-fluorobenzamide]
CC1(C)[C@H](NC(=O)c2ccc(N3CCC(CN4CCC(n5ncc6c(N7CCC(=O)NC7=O)cccc65)CC4)CC3)c(F)c2)C(C)(C)[C@H]1Oc1ccc(C#N)c2c1CCO2 [Example 9, N-((1r,3r)-3-((7-Cyano-2,3-dihydrobenzofuran-4-yl)oxy)-2,2,4,4-tetramethylcyclobutyl)-4-(4-((4-(4-(2,4-dioxotetrahydropyrimidin-1(2H)-yl)-1H-indazol-1-yl)piperidin-1-yl)methyl)piperidin-1-yl)-3-fluorobenzamide]
CC1(C)[C@H](NC(=O)c2ccc(N3CCC(CN4CCC(n5ccc6c(N7CCC(=O)NC7=O)c(F)ccc65)CC4)CC3)c(F)c2)C(C)(C)[C@H]1Oc1ccc(C#N)c(Cl)c1 [Example 12, N-((1r,3r)-3-(3-Chloro-4-cyanophenoxy)-2,2,4,4-tetramethylcyclobutyl)-4-(4-((4-(4-(2,4-dioxotetrahydropyrimidin-1(2H)-yl)-5-fluoro-1H-indol-1-yl)piperidin-1-yl)methyl)piperidin-1-yl)-3-fluorobenzamide]
CC1(C)[C@H](NC(=O)c2ccc(N3CCC(CN4CCC(n5ncc6c(N7CCC(=O)NC7=O)cccc65)CC4)CC3)cc2)C(C)(C)[C@H]1Oc1ccc(C#N)c2ncccc12 [Example 29, N-((1r,3r)-3-((8-Cyanoquinolin-5-yl)oxy)-2,2,4,4-tetramethylcyclobutyl)-4-(4-((4-(4-(2,4-dioxotetrahydropyrimidin-1(2H)-yl)-1H-indazol-1-yl)piperidin-1-yl)methyl)piperidin-1-yl)benzamide]
CC1(C)[C@H](NC(=O)c2ccc(N3CCC(CN4CCC(n5ncc6c(N7CCC(=O)NC7=O)cc(F)cc65)CC4)CC3)c(F)c2)C(C)(C)[C@H]1Oc1ccc(C#N)c(Cl)c1 [Example 11, N-((1r,3r)-3-(3-Chloro-4-cyanophenoxy)-2,2,4,4-tetramethylcyclobutyl)-4-(4-((4-(4-(2,4-dioxotetrahydropyrimidin-1(2H)-yl)-6-fluoro-1H-indazol-1-yl)piperidin-1-yl)methyl)piperidin-1-yl)-3-fluorobenzamide]
COc1cc(O[C@H]2C(C)(C)[C@H](NC(=O)c3ccc(N4CCC(CN5CCC(n6ncc7c(N8CCC(=O)NC8=O)cccc76)CC5)CC4)c(F)c3)C2(C)C)ccc1C#N [Example 21, N-((1r,3r)-3-(4-Cyano-3-methoxyphenoxy)-2,2,4,4-tetramethylcyclobutyl)-4-(4-((4-(4-(2,4-dioxotetrahydropyrimidin-1(2H)-yl)-1H-indazol-1-yl)piperidin-1-yl)methyl)piperidin-1-yl)-3-fluorobenzamide]
CC1(C)[C@H](NC(=O)c2ccc(N3CCC(CN4CC[C@H](n5ncc6c(N7CCC(=O)NC7=O)cccc65)[C@H](F)C4)CC3)c(F)c2)C(C)(C)[C@H]1Oc1ccc(C#N)c(Cl)c1 [Example 14, N-((1r,3r)-3-(3-Chloro-4-cyanophenoxy)-2,2,4,4-tetramethylcyclobutyl)-4-(4-(((3R,4S)-4-(4-(2,4-dioxotetrahydropyrimidin-1(2H)-yl)-1H-indazol-1-yl)-3-fluoropiperidin-1-yl)methyl)piperidin-1-yl)-3-fluorobenzamide]
COc1cc(O[C@H]2C(C)(C)[C@H](NC(=O)c3ccc(N4CCC(CN5CC[C@H](n6ncc7c(N8CCC(=O)NC8=O)cccc76)[C@H](F)C5)CC4)c(F)c3)C2(C)C)ccc1C#N [Example 26, N-((1r,3r)-3-(4-Cyano-3-methoxyphenoxy)-2,2,4,4-tetramethylcyclobutyl)-4-(4-(((3R,4S)-4-(4-(2,4-dioxotetrahydropyrimidin-1(2H)-yl)-1H-indazol-1-yl)-3-fluoropiperidin-1-yl)methyl)piperidin-1-yl)-3-fluorobenzamide]
CC1(C)[C@H](NC(=O)c2ccc(N3CCC(CN4CCC(n5ncc6c(N7CCC(=O)NC7=O)cccc65)CC4)CC3)c(F)c2)C(C)(C)[C@H]1Oc1ccc(C#N)c(Cl)c1 [Example 1, N-((1r,3r)-3-(3-Chloro-4-cyanophenoxy)-2,2,4,4-tetramethylcyclobutyl)-4-(4-((4-(4-(2,4-dioxotetrahydropyrimidin-1(2H)-yl)-1H-indazol-1-yl)piperidin-1-yl)methyl)piperidin-1-yl)-3-fluorobenzamide]
CCOc1cc(O[C@H]2C(C)(C)[C@H](NC(=O)c3ccc(N4CCC(CN5CCC(n6ncc7c(N8CCC(=O)NC8=O)cccc76)CC5)CC4)c(F)c3)C2(C)C)ccc1C#N [Example 4, N-((1r,3r)-3-(4-Cyano-3-ethoxyphenoxy)-2,2,4,4-tetramethylcyclobutyl)-4-(4-((4-(4-(2,4-dioxotetrahydropyrimidin-1(2H)-yl)-1H-indazol-1-yl)piperidin-1-yl)methyl)piperidin-1-yl)-3-fluorobenzamide]
COc1cc(O[C@H]2C(C)(C)[C@H](NC(=O)c3ccc(N4CCC(CN5CCC(n6ncc7c(N8CCC(=O)NC8=O)c(F)ccc76)CC5)CC4)c(F)c3)C2(C)C)ccc1C#N [Example 25, N-((1r,3r)-3-(4-Cyano-3-methoxyphenoxy)-2,2,4,4-tetramethylcyclobutyl)-4-(4-((4-(4-(2,4-dioxotetrahydropyrimidin-1(2H)-yl)-5-fluoro-1H-indazol-1-yl)piperidin-1-yl)methyl)piperidin-1-yl)-3-fluorobenzamide]
CC1(C)[C@H](NC(=O)c2ccc(N3CCC(CN4CC[C@H](n5ncc6c(N7CCC(=O)NC7=O)cccc65)C4)CC3)c(F)c2)C(C)(C)[C@H]1Oc1ccc(C#N)c(Cl)c1 [Example 10, N-((1r,3r)-3-(3-Chloro-4-cyanophenoxy)-2,2,4,4-tetramethylcyclobutyl)-4-(4-(((S)-3-(4-(2,4-dioxotetrahydropyrimidin-1(2H)-yl)-1H-indazol-1-yl)pyrrolidin-1-yl)methyl)piperidin-1-yl)-3-fluorobenzamide]
CC1(C)[C@H](NC(=O)c2cc(F)c(N3CCC(CN4CCC(n5ncc6c(N7CCC(=O)NC7=O)cccc65)CC4)CC3)cc2F)C(C)(C)[C@H]1Oc1ccc(C#N)c2ncccc12 [Example 35, N-((1r,3r)-3-((8-Cyanoquinolin-5-yl)oxy)-2,2,4,4-tetramethylcyclobutyl)-4-(4-((4-(4-(2,4-dioxotetrahydropyrimidin-1(2H)-yl)-1H-indazol-1-yl)piperidin-1-yl)methyl)piperidin-1-yl)-2,5-difluorobenzamide]
